In patent publication US20100311749A1, “4-BENZOYL-1-SUBSTITUTED-PIPERAZIN-2-ONE DERIVATIVES AS P2X7 MODULATORS” (priority 2007, published 2010):
Where a name gives a salt, the structure may show the parent alone.

target: T1, human P2X7 receptor (Homo sapiens, UniProt Q99572); experiment: Ethidium Accumulation Assay; format: cell-based; details: HEK293 cells stably expressing human recombinant P2X7 receptors; 1 mM ATP; values given as 'about'; read-out: pIC50 for human P2X7 receptor antagonist activity (blocking ATP responses) in the Ethidium Accumulation Assay (converted)
T1 construct: expressed in transfected cells
T1 sequence (Q99572 1-595): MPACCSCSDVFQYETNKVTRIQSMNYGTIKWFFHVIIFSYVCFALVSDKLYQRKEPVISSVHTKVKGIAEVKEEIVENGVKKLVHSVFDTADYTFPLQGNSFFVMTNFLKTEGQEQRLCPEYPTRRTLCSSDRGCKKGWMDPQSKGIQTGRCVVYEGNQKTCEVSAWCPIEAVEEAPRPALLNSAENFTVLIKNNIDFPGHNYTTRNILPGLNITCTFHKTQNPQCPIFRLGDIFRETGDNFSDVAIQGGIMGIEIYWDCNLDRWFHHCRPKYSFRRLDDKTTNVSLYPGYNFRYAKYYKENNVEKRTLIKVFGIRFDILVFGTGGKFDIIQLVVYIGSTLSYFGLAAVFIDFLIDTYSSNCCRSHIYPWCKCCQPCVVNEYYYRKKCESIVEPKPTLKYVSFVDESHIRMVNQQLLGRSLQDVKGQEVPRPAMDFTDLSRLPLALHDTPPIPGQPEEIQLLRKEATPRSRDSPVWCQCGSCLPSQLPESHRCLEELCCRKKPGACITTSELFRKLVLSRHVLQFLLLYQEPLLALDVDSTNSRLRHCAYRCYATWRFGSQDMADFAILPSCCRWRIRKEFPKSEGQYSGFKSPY
Procedure: Studies were performed using NaCl assay buffer of the following composition: 140 mM NaCl, 10 mM HEPES [4-(2-hydroxyethyl)-1-piperazine-1-ethanesulfonic acid], 5 mM N-methyl-D-glucamine, 5.6 mM KCl, 10 mM D-glucose, 0.5 mM CaCl2 (pH 7.4).
Human Embryonic Kidney (HEK) 293 cells, stably expressing human recombinant P2X7 receptors, were grown in poly-D-lysine pre-treated 96 well plates for 18-24 hours. […] The cells were washed twice with 350 μl of the assay buffer, before addition of 50 μl of the assay buffer containing the putative P2X7 receptor antagonist compound. (A small amount of dimethyl sulfoxide, for initially dissolving the compound, is optionally used and present in this 50 μl test compound sample.) The cells were then incubated at room temperature (19-21° C.) for 30 min before addition of ATP and ethidium (100 μM final assay concentration). The ATP concentration was chosen to be close to the EC80 for the receptor type and was 1 mM for studies on the human P2X7 receptor. Incubations were continued for 8 or 16 min and were terminated by addition of 25 μl of 1.3M sucrose containing 4 mM of the P2X7 receptor antagonist Reactive Black 5 (Aldrich). […] Antagonist pIC50 values for blocking ATP responses were determined using iterative curve fitting techniques.

Compound	IC50
CC(C)N1CCN(C(=O)c2cccc(Cl)c2Cl)CC1=O [Example 18, 4-[(2,3-Dichlorophenyl)carbonyl]-1-(1-methylethyl)-2-piperazinone]	5.01 to 200 nM
O=C(c1cccc(Cl)c1Cl)N1CCN(c2ccccc2Cl)C(=O)C1 [Example 6, 1-(2-Dichlorophenyl)-4-[(2,3-dichlorophenyl)carbonyl]-2-piperazinone]	5.01 to 200 nM
CN1CCN(C(=O)c2cccc(Cl)c2Cl)CC1=O [Example 16, 4-[(2,3-Dichlorophenyl)carbonyl]-1-methyl-2-piperazinone]	5.01 to 200 nM
O=C(c1cccc(C(F)(F)F)c1Cl)N1CCN(c2ccc(F)cc2Cl)C(=O)C1 [Example 10, 1-(2-Chloro-4-fluorophenyl)-4-{[2-chloro-3-(trifluoromethyl)phenyl]carbonyl}-2-piperazinone]	5.01 to 200 nM
O=C(c1ccc(F)cc1Cl)N1CCN(c2ccccc2Cl)C(=O)C1 [Example 5, 4-[(2-Chloro-4-fluorophenyl)carbonyl]-1-(2-chlorophenyl)-2-piperazinone]	5.01 to 200 nM
O=C(c1ccc(F)cc1Cl)N1CCN(c2cccc3ccccc23)C(=O)C1 [Example 23, 4-[(2-chloro-4-fluorophenyl)carbonyl]-1-(1-naphthalenyl)-2-piperazinone]	2.51 to 100 nM
O=C(c1cccc(Cl)c1Cl)N1CCN(c2ccc(F)cc2)C(=O)C1 [Example 13, 4-[(2,3-Dichlorophenyl)carbonyl]-1-(4-fluorophenyl)-2-piperazinone]	5.01 to 200 nM
O=C(c1cccc(C(F)(F)F)c1Cl)N1CCN(c2cccc3ccccc23)C(=O)C1 [Example 24, 4-{[2-chloro-3-(trifluoromethyl)phenyl]carbonyl}-1-(1-naphthalenyl)-2-piperazinone]	2.51 to 100 nM
Cc1ccccc1N1CCN(C(=O)c2cccc(Cl)c2Cl)CC1=O [Example 4, 4-[(2,3-Dichlorophenyl)carbonyl]-1-(2-methylphenyl)-2-piperazinone]	5.01 to 200 nM
Cc1cccc(C(=O)N2CCN(c3ccc(F)cc3Cl)C(=O)C2)c1Cl [Example 30, 1-(2-chloro-4-fluorophenyl)-4-[(2-chloro-3-methylphenyl)carbonyl]-2-piperazinone]	2.51 to 100 nM
Cc1cc(F)ccc1N1CCN(C(=O)c2cccc(Cl)c2Cl)CC1=O [Example 28, 4-[(2,3-dichlorophenyl)carbonyl]-1-(4-fluoro-2-methylphenyl)-2-piperazinone]	2.51 to 100 nM
CC(C)c1ccccc1N1CCN(C(=O)c2cccc(C(F)(F)F)c2Cl)CC1=O [Example 25, 4-{[2-chloro-3-(trifluoromethyl)phenyl]carbonyl}-1-[2-(1-methylethyl)phenyl]-2-piperazinone]	2.51 to 100 nM
O=C(c1cccc(Cl)c1Cl)N1CCN(c2cccc3ccccc23)C(=O)C1 [Example 22, 4-[(2,3-dichlorophenyl)carbonyl]-1-(1-naphthalenyl)-2-piperazinone]	2.51 to 100 nM
CC(C)c1ccccc1N1CCN(C(=O)c2ccc(F)cc2Cl)CC1=O [Example 26, 4-[(2-chloro-4-fluorophenyl)carbonyl]-1-[2-(1-methylethyl)phenyl]-2-piperazinone]	2.51 to 100 nM
Cc1ccccc1N1CCN(C(=O)c2cccc(C(F)(F)F)c2Cl)CC1=O [Example 1, 4-{[2-Chloro-3-(trifluoromethyl)phenyl]carbonyl}-1-(2-methylphenyl)-2-piperazinone]	5.01 to 200 nM

Next, values leading:

IC50	Compound
2.51 to 100 nM	Cc1c(N2CCOCC2)cccc1N1CCN(C(=O)c2cccc(C(F)(F)F)c2Cl)CC1=O [Example 81, 4-{[2-chloro-3-(trifluoromethyl)phenyl]carbonyl}-1-[2-methyl-3-(4-morpholinyl)phenyl]-2-piperazinone]
2.51 to 100 nM	CCCN1CCN(C(=O)c2cccc(C(F)(F)F)c2Cl)CC1=O [Example 49, 4-{[2-chloro-3-(trifluoromethyl)phenyl]carbonyl}-1-propyl-2-piperazinone]
2.51 to 100 nM	CC(c1ccccc1)N1CCN(C(=O)c2cccc(C(F)(F)F)c2Cl)CC1=O (stereo not drawn) [Example 85, 4-{[2-chloro-3-(trifluoromethyl)phenyl]carbonyl}-1-(1-phenylethyl)-2-piperazinone]
2.51 to 100 nM	O=C(c1cccc(C(F)(F)F)c1Cl)N1CCN(c2cccc(N3CCOCC3)c2Cl)C(=O)C1 [Example 79, 1-[2-chloro-3-(4-morpholinyl)phenyl]-4-{[2-chloro-3-(trifluoromethyl)phenyl]carbonyl}-2-piperazinone]
2.51 to 100 nM	Cc1ccc(-c2ccc(C)c(N3CCN(C(=O)c4cccc(C(F)(F)F)c4Cl)CC3=O)c2)cn1 [Example 74, 4-{[2-chloro-3-(trifluoromethyl)phenyl]carbonyl}-1-[2-methyl-5-(6-methyl-3-pyridinyl)phenyl]-2-piperazinone hydrochloride]
2.51 to 100 nM	Cc1ccc(-c2cccc(N3CCN(C(=O)c4cccc(C(F)(F)F)c4Cl)CC3=O)c2C)cn1 [Example 84, 4-{[2-chloro-3-(trifluoromethyl)phenyl]carbonyl}-1-[2-methyl-3-(6-methyl-3-pyridinyl)phenyl]-2-piperazinone]
2.51 to 100 nM	CC(C)Oc1cc(F)ccc1N1CCN(C(=O)c2cccc(Cl)c2Cl)CC1=O [Example 58, 4-[(2,3-dichlorophenyl)carbonyl]-1-{4-fluoro-2-[(1-methylethyl)oxy]phenyl}-2-piperazinone]
2.51 to 100 nM	O=C1CN(C(=O)c2cccc(C(F)(F)F)c2Cl)CCN1CC1CCCCC1 [Example 66, 4-{[2-chloro-3-(trifluoromethyl)phenyl]carbonyl}-1-(cyclohexylmethyl)-2-piperazinone]
2.51 to 100 nM	O=C(c1c(Cl)cc(Cl)cc1Cl)N1CCN(c2cc(N3CCOCC3)ccc2Cl)C(=O)C1 [Example 77, 1-[2-chloro-5-(4-morpholinyl)phenyl]-4-[(2,4,6-trichlorophenyl)carbonyl]-2-piperazinone]
2.51 to 100 nM	Cc1ccc(N2CCCC2)cc1N1CCN(C(=O)c2cccc(C(F)(F)F)c2Cl)CC1=O [Example 73, 4-{[2-chloro-3-(trifluoromethyl)phenyl]carbonyl}-1-[2-methyl-5-(1-pyrrolidinyl)phenyl]-2-piperazinone]
2.51 to 100 nM	Cc1c(N2CCCC2)cccc1N1CCN(C(=O)c2cccc(C(F)(F)F)c2Cl)CC1=O [Example 75, 4-{[2-chloro-3-(trifluoromethyl)phenyl]carbonyl}-1-[2-methyl-3-(1-pyrrolidinyl)phenyl]-2-piperazinone]
2.51 to 100 nM	CC(C)CN1CCN(C(=O)c2cccc(Cl)c2Cl)CC1=O [Example 39, 4-[(2,3-dichlorophenyl)carbonyl]-1-(2-methylpropyl)-2-piperazinone]
2.51 to 100 nM	O=C1CN(C(=O)c2cccc(C(F)(F)F)c2Cl)CCN1CC1CC1 [Example 48, 4-{[2-chloro-3-(trifluoromethyl)phenyl]carbonyl}-1-(cyclopropylmethyl)-2-piperazinone]
2.51 to 100 nM	CCC(CC)N1CCN(C(=O)c2cccc(C(F)(F)F)c2Cl)CC1=O [Example 47, 4-{[2-chloro-3-(trifluoromethyl)phenyl]carbonyl}-1-(1-ethylpropyl)-2-piperazinone]
2.51 to 100 nM	N#Cc1cc(F)ccc1N1CCN(C(=O)c2cccc(Cl)c2Cl)CC1=O [Example 38, 2-{-4-[(2,3-dichlorophenyl)carbonyl]-2-oxo-1-piperazinyl}-5-fluorobenzonitrile]
